Measured values as given in US20080051387A1, “TETRAHYDROPYRIDO[3,4-D]PYRIMIDINES AND RELATED ANALOGUES” (priority 2006, published 2008).

Biological target: T1, chimeric human H3 receptor (Homo sapiens, UniProt Q9Y5N1)
T1 construct: rat Galpha-i2 (Gnai2, rat); made in house; host or cells: Sf9 insect cells (baculovirus); P2 membranes
Assay: Chimeric human H3 receptor screening GTP binding assay (inhibition of histamine-stimulated GTP-gamma35S binding, Example 8)
Format: biochemical
Details: 1 h; assay described in Example 8; symbol "!" in column headed Ki; read-out: Ki ("!": percent inhibition of agonist-induced GTP-gammaS binding to H3)
Summary of the method: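 Compound tested at 4 μM against 1 μM histamine stimulation; 125 pM GTP-gamma35S binding measured by filtration and scintillation after 60 min at room temperature. Membranes from Sf9 cells expressing chimeric human H3 plus G-protein subunits, in Tris pH 7.4/NaCl/MgCl2/GDP buffer; values are % inhibition after nonspecific subtraction.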

T1 sequence (Q9Y5N1 with tags, fused parts or gaps): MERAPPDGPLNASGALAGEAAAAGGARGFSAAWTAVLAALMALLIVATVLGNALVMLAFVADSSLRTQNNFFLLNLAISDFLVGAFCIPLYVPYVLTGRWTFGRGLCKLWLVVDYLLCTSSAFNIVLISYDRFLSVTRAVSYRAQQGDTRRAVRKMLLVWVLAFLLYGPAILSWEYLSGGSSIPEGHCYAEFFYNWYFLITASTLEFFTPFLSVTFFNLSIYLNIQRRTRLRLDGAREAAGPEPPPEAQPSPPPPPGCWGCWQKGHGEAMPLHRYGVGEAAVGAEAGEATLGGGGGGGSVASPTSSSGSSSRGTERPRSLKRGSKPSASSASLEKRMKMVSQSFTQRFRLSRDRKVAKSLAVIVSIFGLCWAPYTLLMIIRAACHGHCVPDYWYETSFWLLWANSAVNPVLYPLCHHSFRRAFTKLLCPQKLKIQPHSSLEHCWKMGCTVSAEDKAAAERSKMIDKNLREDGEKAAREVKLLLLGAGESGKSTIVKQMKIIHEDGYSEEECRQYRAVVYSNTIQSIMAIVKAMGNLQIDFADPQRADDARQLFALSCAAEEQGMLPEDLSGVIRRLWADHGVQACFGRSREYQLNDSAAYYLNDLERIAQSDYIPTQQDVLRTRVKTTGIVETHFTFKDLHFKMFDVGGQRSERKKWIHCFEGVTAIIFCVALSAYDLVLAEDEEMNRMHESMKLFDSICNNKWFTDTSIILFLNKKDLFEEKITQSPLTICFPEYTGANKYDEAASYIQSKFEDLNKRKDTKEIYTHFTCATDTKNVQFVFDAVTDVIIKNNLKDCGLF

Inhibition at 4 µM, ≥ 90%:
Cc1ccc(C(=O)N2CCc3cnc(N4CCN(C5CCC5)CC4)nc3CC2)cc1Br [Compound 400, 7-(3-bromo-4-methylbenzoyl)-2-(4-cyclobutylpiperazin-1-yl)-6,7,8,9-tetrahydro-5H-pyrimido[4,5-d]azepine]
CCCCOc1ccc(C(=O)N2CCc3cnc(N4CCN(C5CCC5)CC4)nc3CC2)cc1 [Compound 382, 7-(4-butoxybenzoyl)-2-(4-cyclobutylpiperazin-1-yl)-6,7,8,9-tetrahydro-5H-pyrimido[4,5-d]azepine]
O=C(c1cnn(-c2ccccc2)c1C(F)(F)F)N1CCc2cnc(N3CCN(C4CCC4)CC3)nc2CC1 [Compound 511, 2-(4-cyclobutylpiperazin-1-yl)-7-{[1-phenyl-5-(trifluormethyl)-1H-pyrazol-4-yl]carbonyl}-6,7,8,9-tetrahydro-5H-pyrimido[4,5-d]azepine]
CSc1ccc(CC(=O)N2CCc3cnc(N4CCN(C5CCC5)CC4)nc3CC2)cc1 [Compound 519, 2-(4-cyclobutylpiperazin-1-yl)-7-{[4-(methylthio)phenyl]acetyl}-6,7,8,9-tetrahydro-5H-pyrimido[4,5-d]azepine]
Cc1cccc(C)c1C(=O)N1CCc2cnc(N3CCN(C4CCC4)CC3)nc2CC1 [Compound 406, 2-(4-cyclobutylpiperazin-1-yl)-7-(2,6-dimethylbenzoyl)-6,7,8,9-tetrahydro-5H-pyrimido[4,5-d]azepine]
COc1ccc(C(=O)N2CCc3cnc(N4CCN(C5CCC5)CC4)nc3CC2)c(OC)c1 [Compound 431, 2-(4-cyclobutylpiperazin-1-yl)-7-(2,4-dimethoxybenzoyl)-6,7,8,9-tetrahydro-5H-pyrimido[4,5-d]azepine]
O=C(c1ccc(Cl)nc1)N1CCc2cnc(N3CCN(C4CCC4)CC3)nc2CC1 [Compound 478, 7-[(6-chloropyridin-3-yl)carbonyl]-2-(4-cyclobutylpiperazin-1-yl)-6,7,8,9-tetrahydro-5H-pyrimido[4,5-d]azepine]
O=C(c1cncc(Br)c1)N1CCc2cnc(N3CCN(C4CCC4)CC3)nc2CC1 [Compound 481, 7-[(5-bromopyridin-3-yl)carbonyl]-2-(4-cyclobutylpiperazin-1-yl)-6,7,8,9-tetrahydro-5H-pyrimido[4,5-d]azepine]
Cn1nc(C(C)(C)C)cc1C(=O)N1CCc2cnc(N3CCN(C4CCC4)CC3)nc2CC1 [Compound 506, 7-[(3-tert-butyl-1-methyl-1H-pyrazol-5-yl)carbonyl]-2-(4-cyclobutylpiperazin-1-yl)-6,7,8,9-tetrahydro-5H-pyrimido[4,5-d]azepine]
O=C(c1cnn(-c2ccc(Cl)cc2)c1C(F)(F)F)N1CCc2cnc(N3CCN(C4CCC4)CC3)nc2CC1 [Compound 507, 7-{[1-(4-chlorophenyl)-5-(trifluoromethyl)-1H-pyrazol-4-yl]carbonyl}-2-(4-cyclobutylpiperazin-1-yl)-6,7,8,9-tetrahydro-5H-pyrimido[4,5-d]azepine]

Same assay, conditions: 1 h; assay of Example 8; symbol "!" in column headed Ki; read-out: percent inhibition of agonist-induced GTP-gammaS binding to H3

Inhibition at 4 µM, ≥ 90%:
O=C(COc1ccc(OC(F)(F)F)cc1)N1CCc2cnc(N3CCN(C4CCC4)CC3)nc2CC1 [Compound 319, 2-(4-cyclobutylpiperazin-1-yl)-7-{[4-(trifluoromethoxy)phenoxy]acetyl}-6,7,8,9-tetrahydro-5H-pyrimido[4,5-d]azepine]
COc1cc(Br)c(/C=C/C(=O)N2CCc3cnc(N4CCN(C5CCC5)CC4)nc3CC2)cc1OC [Compound 588, 7-[(2E)-3-(2-bromo-4,5-dimethoxyphenyl)prop-2-enoyl]-2-(4-cyclobutylpiperazin-1-yl)-6,7,8,9-tetrahydro-5H-pyrimido[4,5-d]azepine]
CCCC(=O)N1CCc2cnc(N3CCN(C4CCC4)CC3)nc2CC1 [Compound 206, 7-butyryl-2-(4-cyclobutylpiperazin-1-yl)-6,7,8,9-tetrahydro-5H-pyrimido[4,5-d]azepine]
O=C(c1cccc(Oc2ccccc2)c1)N1CCc2cnc(N3CCN(C4CCC4)CC3)nc2CC1 [Compound 374, 2-(4-cyclobutylpiperazin-1-yl)-7-(3-phenoxybenzoyl)-6,7,8,9-tetrahydro-5H-pyrimido[4,5-d]azepine]
c1nc2c(c(N3CCN(C4CCC4)CC3)n1)CCN(CC1CCOCC1)CC2 [Compound 271, 4-(4-cyclobutylpiperazin-1-yl)-7-(tetrahydro-2H-pyran-4-ylmethyl)-6,7,8,9-tetrahydro-5H-pyrimido[4,5-d]azepine]
O=C(Cc1cccc(Br)c1)N1CCc2cnc(N3CCN(C4CCC4)CC3)nc2CC1 [Compound 289, 7-[(3-bromophenyl)acetyl]-2-(4-cyclobutylpiperazin-1-yl)-6,7,8,9-tetrahydro-5H-pyrimido[4,5-d]azepine]
O=C(COc1ccc(Cl)cc1)N1CCc2cnc(N3CCN(C4CCC4)CC3)nc2CC1 [Compound 326, 7-[(4-chlorophenoxy)acetyl]-2-(4-cyclobutylpiperazin-1-yl)-6,7,8,9-tetrahydro-5H-pyrimido[4,5-d]azepine]
c1ccc2ncc(CN3CCc4cnc(N5CCN(C6CCC6)CC5)nc4CC3)cc2c1 [Compound 237, 2-(4-cyclobutylpiperazin-1-yl)-7-(quinolin-3-ylmethyl)-6,7,8,9-tetrahydro-5H-pyrimido[4,5-d]azepine]
Cc1ccc(C)c(OCC(=O)N2CCc3cnc(N4CCN(C5CCC5)CC4)nc3CC2)c1 [Compound 334, 2-(4-cyclobutylpiperazin-1-yl)-7-[(2,5-dimethylphenoxy)acetyl]-6,7,8,9-tetrahydro-5H-pyrimido[4,5-d]azepine]
O=C(Cc1c(F)cccc1Cl)N1CCc2cnc(N3CCN(C4CCC4)CC3)nc2CC1 [Compound 298, 7-[(2-chloro-6-fluorophenyl)acetyl]-2-(4-cyclobutylpiperazin-1-yl)-6,7,8,9-tetrahydro-5H-pyrimido[4,5-d]azepine]
O=C(c1cccc(F)c1)N1CCc2cnc(N3CCN(C4CCC4)CC3)nc2CC1 [Compound 193, 2-(4-cyclobutylpiperazin-1-yl)-7-(3-fluorobenzoyl)-6,7,8,9-tetrahydro-5H-pyrimido[4,5-d]azepine]

Same assay, conditions: symbol ! in Ki; test compound 4 μM, 1 μM histamine; read-out: percent inhibition of agonist-induced GTP-gammaS binding to H3

Inhibition at 4 µM, ≥ 90%:
Cc1cc(C(C)N2CCc3c(ncnc3N3CCN(C4CCC4)CC3)C2)n(C)n1 (stereo not drawn) [Compound 112, 4-(4-cyclobutylpiperazin-1-yl)-7-[1-(1,3-dimethyl-1H-pyrazol-5-yl)ethyl]-5,6,7,8-tetrahydropyrido[3,4-d]pyrimidine]
c1nc2c(c(N3CCN(C4CCC4)CC3)n1)CCN(Cc1ccc3c(c1)OCCO3)C2 [Compound 92, 4-(4-cyclobutylpiperazin-1-yl)-7-(2,3-dihydro-1,4-benzodioxin-6-ylmethyl)-5,6,7,8-tetrahydropyrido[3,4-d]pyrimidine]
CCCC(C)N1CCc2c(ncnc2N2CCN(C3CCC3)CC2)C1 (stereo not drawn) [Compound 118, 4-(4-cyclobutylpiperazin-1-yl)-7-(1-methylbutyl)-5,6,7,8-tetrahydropyrido[3,4-d]pyrimidine]
c1cc(N2CCOCC2)ncc1CN1CCc2nc(N3CCN(C4CCC4)CC3)ncc2C1 [Compound 621, 2-(4-cyclobutylpiperazin-1-yl)-6-[(6-morpholin-4-ylpyridin-3-yl)methyl]-5,6,7,8-tetrahydropyrido[4,3-d]pyrimidine]
CC(c1ccc(N2CCOCC2)nc1)N1CCc2c(ncnc2N2CCN(C3CCC3)CC2)C1 (stereo not drawn) [Compound 111, 4-(4-cyclobutylpiperazin-1-yl)-7-[1-(6-morpholin-4-ylpyridin-3-yl)ethyl]-5,6,7,8-tetrahydropyrido[3,4-d]pyrimidine]
CC(c1ccnc2ccccc12)N1CCc2c(ncnc2N2CCN(C3CCC3)CC2)C1 (stereo not drawn) [Compound 108, 4-(4-cyclobutylpiperazin-1-yl)-7-(1-quinolin-4-ylethyl)-5,6,7,8-tetrahydropyrido[3,4-d]pyrimidine]
c1nc2c(c(N3CCN(C4CCC4)CC3)n1)CCN(CC1CC1)CC2 [Compound 169, 4-(4-cyclobutylpiperazin-1-yl)-7-(cyclopropylmethyl)-6,7,8,9-tetrahydro-5H-pyrimido[4,5-d]azepine]
CC(C)c1ccc(CN2CCc3c(ncnc3N3CCN(C4CCC4)CC3)C2)cc1 [Compound 80]
CCN1CCc2c(ncnc2N2CCN(C3CCC3)CC2)C1 [Compound 81, 4-(4-cyclobutylpiperazin-1-yl)-7-ethyl-5,6,7,8-tetrahydropyrido[3,4-d]pyrimidine]
COc1cccc(C(=O)N2CCc3c(ncnc3N3CCN(C4CCC4)CC3)C2)c1 [Compound 26, 4-(4-cyclobutylpiperazin-1-yl)-7-(3-methoxybenzoyl)-5,6,7,8-tetrahydropyrido[3,4-d]pyrimidine]
c1ccc2ncc(CN3CCc4ncnc(N5CCN(C6CCC6)CC5)c4CC3)cc2c1 [Compound 152, 4-(4-cyclobutylpiperazin-1-yl)-7-(quinolin-3-ylmethyl)-6,7,8,9-tetrahydro-5H-pyrimido[4,5-d]azepine]

Same assay, conditions: test compound 4 μM, 1 μM histamine; read-out: percent inhibition of agonist-induced GTP-gammaS binding to H3

Inhibition at 4 µM, ≥ 90%:
c1ccc(CN2CCc3c(ncnc3N3CCN(C4CCC4)CC3)C2)cc1 [Compound 1, 7-Benzyl-4-(4-cyclobutylpiperazin-1-yl)-5,6,7,8-tetrahydropyrido[3,4-d]pyrimidine]
